Like-named read-outs stand apart in the source and are kept apart here.
Assays:
Type in all cases: biochemical
[1] = molecular target: T1, PI3K γ (p110γ) (Homo sapiens, UniProt P48736); assay: PI 3-Kinase (human) HTRF assay, PI3K γ; conditions: read-out: PI3K γ IC50
T1 construct: purchased Upstate / Millipore Corporation

[2] = molecular target: T2, PI3K α (p110α/p85α) (Homo sapiens, UniProt P42336); assay: PI 3-Kinase (human) HTRF assay, PI3K α; conditions: read-out: PI3K α IC50
T2 construct: purchased Upstate / Millipore Corporation
T2 sequence (P42336 whole entry): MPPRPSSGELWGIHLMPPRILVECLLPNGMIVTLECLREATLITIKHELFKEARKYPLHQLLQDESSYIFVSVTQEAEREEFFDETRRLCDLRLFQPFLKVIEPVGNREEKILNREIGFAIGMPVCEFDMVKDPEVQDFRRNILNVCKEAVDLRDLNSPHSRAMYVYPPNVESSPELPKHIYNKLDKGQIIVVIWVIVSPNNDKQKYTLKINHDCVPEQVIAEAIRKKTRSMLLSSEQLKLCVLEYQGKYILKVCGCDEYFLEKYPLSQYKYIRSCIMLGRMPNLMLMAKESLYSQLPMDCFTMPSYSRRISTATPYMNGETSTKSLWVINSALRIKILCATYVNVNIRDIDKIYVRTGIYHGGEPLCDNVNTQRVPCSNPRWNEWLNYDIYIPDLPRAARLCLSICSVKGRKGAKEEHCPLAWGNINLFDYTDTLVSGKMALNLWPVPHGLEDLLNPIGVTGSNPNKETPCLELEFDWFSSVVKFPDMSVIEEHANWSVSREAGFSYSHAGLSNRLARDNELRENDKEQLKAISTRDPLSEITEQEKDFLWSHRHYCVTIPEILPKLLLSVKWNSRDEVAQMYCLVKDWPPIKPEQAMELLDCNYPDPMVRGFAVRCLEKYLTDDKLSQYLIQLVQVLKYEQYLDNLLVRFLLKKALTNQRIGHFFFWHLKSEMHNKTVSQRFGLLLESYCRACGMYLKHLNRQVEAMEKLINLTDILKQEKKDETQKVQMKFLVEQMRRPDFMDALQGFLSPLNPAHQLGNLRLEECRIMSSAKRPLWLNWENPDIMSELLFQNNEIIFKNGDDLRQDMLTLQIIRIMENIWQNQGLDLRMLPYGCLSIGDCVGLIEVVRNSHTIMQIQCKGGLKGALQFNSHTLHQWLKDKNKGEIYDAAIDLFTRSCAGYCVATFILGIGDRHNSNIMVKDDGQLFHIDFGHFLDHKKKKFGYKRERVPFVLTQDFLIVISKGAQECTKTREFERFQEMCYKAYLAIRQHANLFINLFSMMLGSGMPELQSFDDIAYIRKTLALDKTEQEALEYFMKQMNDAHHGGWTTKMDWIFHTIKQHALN
T2 sequence (P27986 whole entry partner): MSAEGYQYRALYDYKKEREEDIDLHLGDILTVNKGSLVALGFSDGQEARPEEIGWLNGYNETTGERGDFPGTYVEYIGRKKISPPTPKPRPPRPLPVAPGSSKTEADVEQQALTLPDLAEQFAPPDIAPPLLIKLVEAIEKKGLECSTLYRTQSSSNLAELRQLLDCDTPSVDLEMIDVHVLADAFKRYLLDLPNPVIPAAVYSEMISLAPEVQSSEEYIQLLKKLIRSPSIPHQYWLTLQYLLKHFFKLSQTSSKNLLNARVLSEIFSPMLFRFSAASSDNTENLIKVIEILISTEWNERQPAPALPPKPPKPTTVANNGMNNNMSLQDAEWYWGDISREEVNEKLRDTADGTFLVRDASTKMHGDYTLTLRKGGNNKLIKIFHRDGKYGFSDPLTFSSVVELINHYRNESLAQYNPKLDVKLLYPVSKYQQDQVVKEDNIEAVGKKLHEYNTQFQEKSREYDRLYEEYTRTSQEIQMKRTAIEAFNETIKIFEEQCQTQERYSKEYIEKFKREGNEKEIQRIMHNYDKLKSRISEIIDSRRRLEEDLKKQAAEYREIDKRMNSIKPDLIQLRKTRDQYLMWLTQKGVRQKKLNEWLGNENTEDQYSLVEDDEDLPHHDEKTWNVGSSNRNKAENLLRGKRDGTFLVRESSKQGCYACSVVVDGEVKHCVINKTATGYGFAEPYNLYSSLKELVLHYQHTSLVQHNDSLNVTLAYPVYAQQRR

[3] = molecular target: T3, PI3K β (p110β/p85α) (Homo sapiens, UniProt P42338); assay: PI 3-Kinase (human) HTRF assay, PI3K β; conditions: read-out: PI3K β IC50
T3 construct: purchased Upstate / Millipore Corporation
T3 sequence (P42338 whole entry): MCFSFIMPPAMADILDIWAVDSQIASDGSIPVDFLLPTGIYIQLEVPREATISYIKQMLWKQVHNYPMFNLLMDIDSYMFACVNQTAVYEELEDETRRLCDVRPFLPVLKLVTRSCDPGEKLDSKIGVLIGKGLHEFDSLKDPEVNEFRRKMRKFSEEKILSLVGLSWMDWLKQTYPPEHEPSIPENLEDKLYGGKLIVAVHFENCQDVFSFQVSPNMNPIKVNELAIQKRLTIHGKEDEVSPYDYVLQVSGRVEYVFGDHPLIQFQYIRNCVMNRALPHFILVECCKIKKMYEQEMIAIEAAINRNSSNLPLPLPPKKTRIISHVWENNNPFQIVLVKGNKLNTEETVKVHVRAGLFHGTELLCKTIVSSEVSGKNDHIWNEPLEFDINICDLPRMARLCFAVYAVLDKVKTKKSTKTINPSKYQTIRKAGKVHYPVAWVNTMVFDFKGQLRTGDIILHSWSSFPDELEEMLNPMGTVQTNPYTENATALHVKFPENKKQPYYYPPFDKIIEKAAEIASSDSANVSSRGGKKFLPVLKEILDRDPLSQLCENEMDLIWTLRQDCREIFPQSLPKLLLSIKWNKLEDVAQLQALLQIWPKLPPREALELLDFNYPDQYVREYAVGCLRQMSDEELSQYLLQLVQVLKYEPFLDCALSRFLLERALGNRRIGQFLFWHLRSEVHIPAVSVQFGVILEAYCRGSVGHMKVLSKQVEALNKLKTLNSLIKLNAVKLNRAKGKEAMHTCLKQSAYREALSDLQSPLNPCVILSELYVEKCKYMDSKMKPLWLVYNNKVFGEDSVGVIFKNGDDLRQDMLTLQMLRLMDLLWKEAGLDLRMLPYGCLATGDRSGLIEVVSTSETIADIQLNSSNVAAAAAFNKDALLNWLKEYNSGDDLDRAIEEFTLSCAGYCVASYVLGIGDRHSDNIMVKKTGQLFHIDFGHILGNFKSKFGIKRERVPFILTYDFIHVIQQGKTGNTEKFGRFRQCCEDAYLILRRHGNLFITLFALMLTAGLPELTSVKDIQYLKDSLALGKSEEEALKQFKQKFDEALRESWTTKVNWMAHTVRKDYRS
T3 sequence (P27986 whole entry partner): as the sequence (P27986 whole entry partner) above

[4] = molecular target: T4, PI3K δ (Homo sapiens, UniProt O00329); assay: PI 3-Kinase (human) HTRF assay, PI3K δ; conditions: read-out: PI3K δ IC50
T4 construct: purchased Upstate / Millipore Corporation
T4 sequence (O00329 whole entry): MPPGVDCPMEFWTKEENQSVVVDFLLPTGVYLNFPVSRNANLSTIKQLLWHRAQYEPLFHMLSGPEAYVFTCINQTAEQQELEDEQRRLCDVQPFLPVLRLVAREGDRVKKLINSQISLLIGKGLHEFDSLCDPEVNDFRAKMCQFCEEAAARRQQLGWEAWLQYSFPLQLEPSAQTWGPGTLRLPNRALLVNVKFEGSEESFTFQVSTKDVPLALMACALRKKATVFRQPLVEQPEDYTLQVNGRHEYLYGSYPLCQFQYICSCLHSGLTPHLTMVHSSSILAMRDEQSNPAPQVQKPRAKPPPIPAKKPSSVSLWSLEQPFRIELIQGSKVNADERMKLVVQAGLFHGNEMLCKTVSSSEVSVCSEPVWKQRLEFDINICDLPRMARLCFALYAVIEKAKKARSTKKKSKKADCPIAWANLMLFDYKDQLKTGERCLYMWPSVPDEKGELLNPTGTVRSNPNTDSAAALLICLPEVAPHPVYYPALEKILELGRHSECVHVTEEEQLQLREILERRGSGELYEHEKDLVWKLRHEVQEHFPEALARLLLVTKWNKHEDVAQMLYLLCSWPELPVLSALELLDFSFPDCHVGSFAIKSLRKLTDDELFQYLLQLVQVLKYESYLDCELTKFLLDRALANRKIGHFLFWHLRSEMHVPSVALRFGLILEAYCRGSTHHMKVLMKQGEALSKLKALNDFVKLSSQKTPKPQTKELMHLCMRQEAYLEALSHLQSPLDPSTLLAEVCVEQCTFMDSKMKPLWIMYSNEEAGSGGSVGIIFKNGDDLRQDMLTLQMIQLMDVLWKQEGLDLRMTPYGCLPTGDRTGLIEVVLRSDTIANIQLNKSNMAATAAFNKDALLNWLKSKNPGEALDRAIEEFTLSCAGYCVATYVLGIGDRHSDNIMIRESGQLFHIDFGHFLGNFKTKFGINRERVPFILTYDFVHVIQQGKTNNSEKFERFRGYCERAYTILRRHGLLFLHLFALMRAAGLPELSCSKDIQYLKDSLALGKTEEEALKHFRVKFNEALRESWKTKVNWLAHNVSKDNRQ
T4 sequence (P27986 whole entry partner): as the sequence (P27986 whole entry partner) above

[5] = molecular target: T5, mTOR (Homo sapiens, UniProt P42345); assay: mTOR kinase inhibition assay (radiometric or LanthaScreen TR-FRET); conditions: read-out: mTORC IC50
T5 construct: purchased Invitrogen

T1 sequence (P48736 whole entry): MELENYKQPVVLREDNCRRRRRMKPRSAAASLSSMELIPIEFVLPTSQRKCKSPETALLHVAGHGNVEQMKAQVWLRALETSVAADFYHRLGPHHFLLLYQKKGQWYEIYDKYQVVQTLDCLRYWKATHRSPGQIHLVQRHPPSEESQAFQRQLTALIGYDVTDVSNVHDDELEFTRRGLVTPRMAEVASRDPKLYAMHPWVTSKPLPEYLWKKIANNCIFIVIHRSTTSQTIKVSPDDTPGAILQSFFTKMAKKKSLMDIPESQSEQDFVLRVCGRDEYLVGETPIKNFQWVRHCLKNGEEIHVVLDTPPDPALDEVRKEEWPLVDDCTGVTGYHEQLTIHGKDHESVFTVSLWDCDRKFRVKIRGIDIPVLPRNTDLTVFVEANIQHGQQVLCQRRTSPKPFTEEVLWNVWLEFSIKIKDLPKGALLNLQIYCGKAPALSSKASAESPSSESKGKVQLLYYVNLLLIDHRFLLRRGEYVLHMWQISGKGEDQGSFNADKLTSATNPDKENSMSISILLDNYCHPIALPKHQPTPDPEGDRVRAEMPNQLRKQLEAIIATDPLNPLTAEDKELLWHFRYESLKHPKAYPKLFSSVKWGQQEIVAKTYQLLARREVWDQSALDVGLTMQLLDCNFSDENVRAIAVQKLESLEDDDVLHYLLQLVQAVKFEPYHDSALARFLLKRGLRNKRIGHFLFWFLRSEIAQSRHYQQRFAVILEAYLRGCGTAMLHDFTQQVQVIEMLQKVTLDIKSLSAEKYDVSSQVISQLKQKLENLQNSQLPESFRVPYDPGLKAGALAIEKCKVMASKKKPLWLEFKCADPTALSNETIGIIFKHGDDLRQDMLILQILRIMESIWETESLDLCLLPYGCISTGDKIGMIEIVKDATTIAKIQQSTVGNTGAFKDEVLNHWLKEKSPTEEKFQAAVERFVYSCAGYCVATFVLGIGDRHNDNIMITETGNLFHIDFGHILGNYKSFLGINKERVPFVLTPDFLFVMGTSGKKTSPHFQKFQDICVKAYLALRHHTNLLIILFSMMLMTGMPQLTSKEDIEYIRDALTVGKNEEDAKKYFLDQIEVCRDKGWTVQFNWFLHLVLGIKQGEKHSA

## Nc1nc2ccc(-c3ccc4nccc(-c5ccncc5)c4c3)cc2s1 [Compound 3]
[1]
  IC50: < 1000 nM
[2]
  IC50: < 100 nM
[3]
  IC50: > 10 µM
[4]
  IC50: < 1000 nM
[5]
  IC50: < 1 µM

## Nc1ccc2cc(-c3ccc4nccc(-c5ccncc5)c4c3)ccc2n1 [Compound 5]
[1]
  IC50: < 1000 nM
[2]
  IC50: < 1000 nM
[3]
  IC50: > 10 µM
[4]
  IC50: < 10000 nM
[5]
  IC50: < 1 µM

## Nc1ncnc2ccc(-c3ccc4nccc(-c5ccncc5)c4c3)cc12 [Compound 8]
[1]
  IC50: < 1000 nM
[2]
  IC50: < 10000 nM
[3]
  IC50: > 10 µM
[5]
  IC50: > 10 µM

## Nc1ncc2cc(-c3ccc4nccc(-c5ccncc5)c4c3)ccc2n1 [Compound 9]
[1]
  IC50: < 1000 nM
[2]
  IC50: < 1000 nM
[3]
  IC50: < 10 µM
[5]
  IC50: > 10 µM

## Nc1nc2cccc(-c3ccc4nccc(-c5ccncc5)c4c3)c2o1 [Compound 15]
[2]
  IC50: < 100 nM
[3]
  IC50: < 0.1 µM
[4]
  IC50: < 1000 nM
[5]
  IC50: < 0.1 µM

## Cn1cc(-c2ccnc3ccc(-c4ccc5oc(N)nc5c4)cc23)cn1 [Compound 26]
[1]
  IC50: < 100 nM
[2]
  IC50: < 100 nM
[4]
  IC50: < 100 nM
[5]
  IC50: < 1 µM

## Nc1nc2cc(-c3ccc4nccn4c3)ccc2o1 [Compound 40]
[1]
  IC50: < 10000 nM
[2]
  IC50: < 10000 nM
[4]
  IC50: > 10000 nM
[5]
  IC50: < 10 µM

## CN1CCN(C(=O)c2cnc3ccc(-c4ccc5oc(N)nc5c4)cn23)CC1 [Compound 44]
[1]
  IC50: < 10000 nM
[2]
  IC50: < 100 nM
[4]
  IC50: < 10000 nM
[5]
  IC50: < 10 µM

## N#Cc1cnc2ccc(-c3ccc4oc(N)nc4c3)cc2c1-c1ccncc1 [Compound 46]
[1]
  IC50: < 100 nM
[2]
  IC50: < 100 nM
[4]
  IC50: < 100 nM
[5]
  IC50: < 0.1 µM

## Nc1nc2cc(-c3ccc4ncnc(OC5CCOCC5)c4c3)ccc2o1 [Compound 47]
[2]
  IC50: < 100 nM
[3]
  IC50: < 1 µM
[4]
  IC50: < 1000 nM
[5]
  IC50: < 0.1 µM

## Nc1nc2cc(-c3ccc4ncn(C5CCOCC5)c(=O)c4c3)ccc2o1 [Compound 55]
[1]
  IC50: > 10000 nM
[2]
  IC50: < 1000 nM
[4]
  IC50: > 10000 nM
[5]
  IC50: > 10 µM

## CC(=O)N1CCC(Nc2ncnc3ccc(-c4ccc5oc(N)nc5c4)cc23)CC1 [Compound 60]
[1]
  IC50: < 100 nM
[2]
  IC50: < 100 nM
[3]
  IC50: < 10 µM
[4]
  IC50: < 1000 nM
[5]
  IC50: < 1 µM

## Nc1nc2cc(-c3ccn4ncc(-c5ccncc5)c4n3)ccc2o1 [Compound 62]
[1]
  IC50: < 100 nM
[2]
  IC50: < 100 nM
[3]
  IC50: < 0.1 µM
[4]
  IC50: < 100 nM
[5]
  IC50: < 0.1 µM

## CC(=O)N1CCC(N(C)c2ncnc3ccc(-c4ccc5oc(N)nc5c4)cc23)CC1 [Compound 137]
[2]
  IC50: < 100 nM
[3]
  IC50: < 1 µM
[4]
  IC50: < 1000 nM
[5]
  IC50: > 10 µM

## Nc1nc2cc(-c3ccc4nc(N)sc4c3)ccc2o1 [Compound 232]
[2]
  IC50: < 1000 nM
[3]
  IC50: < 1 µM
[4]
  IC50: < 10000 nM
[5]
  IC50: < 10 µM

## Nc1nc2cc(-c3cccc4[nH]nc(N)c34)ccc2o1 [Compound 236]
[1]
  IC50: > 10000 nM
[2]
  IC50: > 10000 nM
[3]
  IC50: > 10 µM
[5]
  IC50: > 10 µM

## CC(C)Oc1nc(-c2ccc3oc(N)nc3c2)cnc1N [Compound 237]
[1]
  IC50: < 10000 nM
[2]
  IC50: < 10000 nM
[3]
  IC50: < 10 µM
[5]
  IC50: < 1 µM

## Nc1nc2cc(-c3ccc4nc(N)oc4c3)ccc2o1 [Compound 241]
[1]
  IC50: < 100 nM
[2]
  IC50: < 1000 nM
[4]
  IC50: < 1000 nM
[5]
  IC50: < 10 µM

## Nc1nc2cc(-c3ccc4ncc(N5CC(N6CCOCC6)C5)nc4c3)ccc2o1 [Compound 273]
[2]
  IC50: < 100 nM
[3]
  IC50: > 10 µM
[4]
  IC50: > 10000 nM
[5]
  IC50: < 1 µM

## CN1CCN(C2CN(c3cnc4ccc(-c5ccc6oc(N)nc6c5)cc4n3)C2)CC1 [Compound 274]
[2]
  IC50: < 100 nM
[3]
  IC50: < 10 µM
[4]
  IC50: < 10000 nM
[5]
  IC50: < 10 µM

## Nc1nc2cc(-c3ccc4ncc(N5CC(N6CC[C@H](O)C6)C5)nc4c3)ccc2o1 [Compound 322]
[1]
  IC50: < 1000 nM
[2]
  IC50: < 100 nM
[3]
  IC50: < 1 µM
[5]
  IC50: > 10 µM

## CN(C)[C@@H]1CCN(c2cnc3ccc(-c4ccc5oc(N)nc5c4)cc3n2)C1 [Compound 378]
[2]
  IC50: < 100 nM
[3]
  IC50: < 0.1 µM
[4]
  IC50: < 10000 nM
[5]
  IC50: < 1 µM

## Nc1nc2cc(-c3ccc4ncc(N5CCNC(C(F)(F)F)C5)nc4c3)ccc2o1 (stereo not drawn) [Compound 384]
[2]
  IC50: < 100 nM
[3]
  IC50: < 1 µM
[4]
  IC50: < 10000 nM
[5]
  IC50: < 1 µM

## CC1(C)CN(C2CN(c3cnc4ccc(-c5ccc6oc(N)nc6c5)cc4n3)C2)CCN1 [Compound 388]
[2]
  IC50: < 100 nM
[3]
  IC50: < 1 µM
[4]
  IC50: < 1000 nM
[5]
  IC50: < 0.1 µM

## CS(=O)(=O)Nc1cc(-c2ccc3ncc(C(=O)N4CCOCC4)n3c2)cnc1Cl [Compound 418]
[2]
  IC50: < 100 nM
[3]
  IC50: < 0.1 µM
[4]
  IC50: < 100 nM
[5]
  IC50: < 0.1 µM

## Nc1nc2cc(-c3ccc4ncc(N5CC(N6CCOCC6)C5)nc4n3)ccc2o1 [Compound 556]
[2]; Table 4 (PI3K α inhibitors)
  IC50: < 100 nM
[3]; Table 4 (PI3K α inhibitors)
  IC50: > 10 µM
[5]; Table 4 (PI3K α inhibitors)
  IC50: < 10 µM

## C[C@H]1CN(C2CN(c3cnc4ccc(-c5ccc6oc(N)nc6c5)nc4n3)C2)CCN1 [Compound 561]
[2]; Table 4 (PI3K α inhibitors)
  IC50: < 100 nM
[3]; Table 4 (PI3K α inhibitors)
  IC50: > 10 µM
[5]; Table 4 (PI3K α inhibitors)
  IC50: < 10 µM

## C[C@@H]1CN(C2CN(c3cnc4ccc(-c5ccc6oc(N)nc6c5)nc4n3)C2)CCN1 [Compound 563]
[1]; Table 4 (PI3K α inhibitors)
  IC50: > 10000 nM
[2]; Table 4 (PI3K α inhibitors)
  IC50: < 100 nM
[3]; Table 4 (PI3K α inhibitors)
  IC50: > 10 µM
[5]; Table 4 (PI3K α inhibitors)
  IC50: > 10 µM

## C[C@H]1CN(c2cnc3ccc(-c4ccc5oc(N)nc5c4)nc3c2)CCN1 [Compound 598]
[1]; Table 4 (PI3K α inhibitors)
  IC50: < 1000 nM
[2]; Table 4 (PI3K α inhibitors)
  IC50: < 100 nM
[3]; Table 4 (PI3K α inhibitors)
  IC50: < 0.1 µM
[5]; Table 4 (PI3K α inhibitors)
  IC50: > 10 µM

## Nc1nc2cc(-c3ccc4ncc(N5CC(N6CCOCC6)C5)cc4n3)ccc2o1 [Compound 604]
[1]; Table 4 (PI3K α inhibitors)
  IC50: < 1000 nM
[2]; Table 4 (PI3K α inhibitors)
  IC50: < 100 nM
[5]; Table 4 (PI3K α inhibitors)
  IC50: > 10 µM

## CC1(C)CN(C2CN(c3cnc4ccc(-c5ccc6oc(N)nc6c5)nc4c3)C2)CCN1 [Compound 609]
[1]; Table 4 (PI3K α inhibitors)
  IC50: < 1000 nM
[2]; Table 4 (PI3K α inhibitors)
  IC50: < 100 nM
[4]; Table 4 (PI3K α inhibitors)
  IC50: < 1000 nM
[5]; Table 4 (PI3K α inhibitors)
  IC50: > 10 µM

## Nc1nc2cc(-c3ccc4ncc(N5CC(N6CCN(CC7CC7)CC6)C5)cc4n3)ccc2o1 [Compound 611]
[2]; Table 4 (PI3K α inhibitors)
  IC50: < 100 nM
[4]; Table 4 (PI3K α inhibitors)
  IC50: < 1000 nM
[5]; Table 4 (PI3K α inhibitors)
  IC50: > 10 µM

## C[C@H]1COCCN1C1CN(c2cnc3ccc(-c4ccc5oc(N)nc5c4)nc3n2)C1 [Compound 612]
[2]; Table 4 (PI3K α inhibitors)
  IC50: < 100 nM
[3]; Table 4 (PI3K α inhibitors)
  IC50: > 10 µM
[5]; Table 4 (PI3K α inhibitors)
  IC50: > 10 µM

## Cc1nccn1C1CN(c2cnc3ccc(-c4ccc5oc(N)nc5c4)nc3c2)C1 [Compound 614]
[1]; Table 4 (PI3K α inhibitors)
  IC50: < 100 nM
[2]; Table 4 (PI3K α inhibitors)
  IC50: < 100 nM
[4]; Table 4 (PI3K α inhibitors)
  IC50: < 1000 nM
[5]; Table 4 (PI3K α inhibitors)
  IC50: > 10 µM

## CN1CCN(C2CN(c3cnc4ccc(-c5ccc6oc(N)nc6c5)nc4c3)C2)CC1=O [Compound 615]
[1]; Table 4 (PI3K α inhibitors)
  IC50: < 100 nM
[2]; Table 4 (PI3K α inhibitors)
  IC50: < 100 nM
[4]; Table 4 (PI3K α inhibitors)
  IC50: < 1000 nM
[5]; Table 4 (PI3K α inhibitors)
  IC50: < 10 µM

## Nc1nc2cc(-c3ccc4ncc(N5CC(N6CCN(CCO)CC6)C5)cc4n3)ccc2o1 [Compound 616]
[1]; Table 4 (PI3K α inhibitors)
  IC50: < 1000 nM
[2]; Table 4 (PI3K α inhibitors)
  IC50: < 100 nM
[4]; Table 4 (PI3K α inhibitors)
  IC50: < 1000 nM
[5]; Table 4 (PI3K α inhibitors)
  IC50: > 10 µM

## CN1CCN(C2CN(c3cnc4ccc(-c5ccc6oc(N)nc6c5)nc4n3)C2)CC1 [Compound 622]
[2]; Table 4 (PI3K α inhibitors)
  IC50: < 100 nM
[4]; Table 4 (PI3K α inhibitors)
  IC50: < 1000 nM
[5]; Table 4 (PI3K α inhibitors)
  IC50: > 10 µM

## CCN1CCN(C2CN(c3cnc4ccc(-c5ccc6oc(N)nc6c5)nc4c3)C2)CC1 [Compound 626]
[2]; Table 4 (PI3K α inhibitors)
  IC50: < 100 nM
[3]; Table 4 (PI3K α inhibitors)
  IC50: < 1 µM
[4]; Table 4 (PI3K α inhibitors)
  IC50: < 1000 nM
[5]; Table 4 (PI3K α inhibitors)
  IC50: > 10 µM

From patent US20150087627A1, “COMBINATION OF KINASE INHIBITORS AND USES THEREOF” (Intellikine LLC, priority 2011, published 2015)
